Experimental data taken from US20240092784A1, “CONDENSED HETEROCYCLIC COMPOUND” (NISSAN CHEMICAL CORPORATION, priority 2020, published 2024).

target: human SPR (Homo sapiens (Human), UniProt P35270); assay: Evaluation Example 2: Measurement of human SPR inhibitory activity (seven concentrations, sepiapterin absorbance at 420 nm); assay type: biochemical; conditions: Evaluation Example 2, seven concentrations 0.14 nM to 100 nM, 240 minutes at room temperature, read-out: IC50
How it was run: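 Reactions ran 240 min at room temperature in 100 mM Tris-HCl pH 7.5 with 0.01% BSA. They contained tag-cleaved, E. coli-expressed full-length human SPR (diluted to 150 ng/mL), seven compound concentrations from 0.14 to 100 nM, and sepiapterin/NADPH added as a 120 μM/160 μM solution. Inhibition was calculated from sepiapterin absorbance at 420 nm.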

Sequence of human SPR (P35270 whole entry): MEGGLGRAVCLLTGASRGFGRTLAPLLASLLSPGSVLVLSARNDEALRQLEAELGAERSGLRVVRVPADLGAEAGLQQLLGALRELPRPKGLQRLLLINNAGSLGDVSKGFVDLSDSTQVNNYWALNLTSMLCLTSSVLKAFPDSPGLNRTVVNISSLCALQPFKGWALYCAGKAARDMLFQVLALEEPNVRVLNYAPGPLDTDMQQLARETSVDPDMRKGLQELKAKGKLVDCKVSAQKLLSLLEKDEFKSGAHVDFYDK

Compound	IC50
CC(C)Cn1c(=O)c(C(=O)N[C@@H](C)C(F)(F)F)c(O)n2ncc(/C=C/C(=O)N3CCOCC3)c12 [compound 545, (S,E)-7-Hydroxy-4-isobutyl-3-(3-morpholino-3-oxoprop-1-en-1-yl)-5-oxo-N-(1,1,1-trifluoropropan-2-yl)-4,5-dihydropyrazolo[1,5-a]pyrimidine-6-carboxamide]	660 pM
CC(C)Cn1c(=O)c(C(=O)NC2CC2)c(O)n2ncc(/C=C/C(=O)N3CCOCC34CCC4)c12 [compound 547, (E)-N-Cyclopropyl-7-hydroxy-4-isobutyl-5-oxo-3-(3-oxo-3-(8-oxa-5-azaspiro[3,5]nonan-5-yl)prop-1-en-1-yl)-4,5-dihydropyrazolo[1,5-a]pyrimidine-6-carboxamide]	740 pM
COC[C@H]1CCCN1C(=O)/C=C/c1cnn2c(O)c(C(=O)NC3CC3)c(=O)n(CC(C)C)c12 [compound 548, (R,E)-N-Cyclopropyl-7-hydroxy-4-isobutyl-3-(3-(2-(methoxymethyl)pyrrolidin-1-yl)-3-oxoprop-1-en-1-yl)-5-oxo-4,5-dihydropyrazolo[1,5-a]pyrimidine-6-carboxamide]	790 pM
COC[C@@H]1CCCN1C(=O)/C=C/c1cnn2c(O)c(C(=O)NC3CC3)c(=O)n(CC(C)C)c12 [compound 549, (S,E)-N-Cyclopropyl-7-hydroxy-4-isobutyl-3-(3-(2-(methoxymethyl)pyrrolidine-1-yl)-3-oxoprop-1-en-1-yl)-5-oxo-4,5-dihydropyrazolo[1,5-a]pyrimidine-6-carboxamide]	730 pM
CC(C)Cn1c(=O)c(C(=O)NCC(F)(F)F)c(O)n2ncc(/C=C/C(=O)N3CCOCC3)c12 [compound 552, (E)-7-Hydroxy-4-isobutyl-3-(3-morpholino-3-oxoprop-1-en-1-yl)-5-oxo-N-(2,2,2-trifluoroethyl)-4,5-dihydropyrazolo[1,5-a]pyrimidine-6-carboxamide]	880 pM
CC(C)Cn1c(=O)c(C(=O)NC2CC2)c(O)n2ncc(/C=C/C(=O)N3CCC3)c12 [compound 553, (E)-3-(3-(Azetidin-1-yl)-3-oxoprop-1-en-1-yl)-N-cyclopropyl-7-hydroxy-4-isobutyl-5-oxo-4,5-dihydropyrazolo[1,5-a]pyrimidine-6-carboxamide]	990 pM
CC(C)Cn1c(=O)c(C(=O)NC2CC2)c(O)n2ncc(/C=C/C(=O)N3CC(F)C3)c12 [compound 554, (E)-N-Cyclopropyl-3-(3-(3-fluoroazetidin-1-yl)-3-oxoprop-1-en-1-yl)-7-hydroxy-4-isobutyl-5-oxo-4,5-dihydropyrazolo[1,5-a]pyrimidine-6-carboxamide]	770 pM
CC(C)Cn1c(=O)c(C(=O)NC2CC2)c(O)n2ncc(/C=C/C(=O)N3CC(F)(F)C3)c12 [compound 555, (E)-N-Cyclopropyl-3-(3-(3,3-difluoroazetidin-1-yl)-3-oxoprop-1-en-1-yl)-7-hydroxy-4-isobutyl-5-oxo-4,5-dihydropyrazolo[1,5-a]pyrimidine-6-carboxamide]	820 pM
CC(C)Cn1c(=O)c(C(=O)NC2CC2)c(O)n2ncc(/C=C/C(=O)N3[C@H](C)COC[C@H]3C)c12 [compound 556, N-Cyclopropyl-3-((E)-3-((3R,5R)-3,5-dimethylmorpholino)-3-oxoprop-1-en-1-yl)-7-hydroxy-4-isobutyl-5-oxo-4,5-dihydropyrazolo[1,5-a]pyrimidine-6-carboxamide]	620 pM
CC(C)Cn1c(=O)c(C(=O)NC2CC2)c(O)n2ncc(/C=C/C(=O)N3[C@H](C)COC[C@@H]3C)c12 [compound 557, N-Cyclopropyl-3-((E)-3-(cis-3,5-dimethylmorpholino)-3-oxoprop-1-en-1-yl)-7-hydroxy-4-isobutyl-5-oxo-4,5-dihydropyrazolo[1,5-a]pyrimidine-6-carboxamide]	810 pM
COC1CN(C(=O)/C=C/c2cnn3c(O)c(C(=O)NC4CC4)c(=O)n(CC(C)C)c23)C1 [compound 558, (E)-N-Cyclopropyl-7-hydroxy-4-isobutyl-3-(3-(3-methoxyazetidin-1-yl)-3-oxoprop-1-en-1-yl)-5-oxo-4,5-dihydropyrazolo[1,5-a]pyrimidine-6-carboxamide]	1140 pM
CC(C)Cn1c(=O)c(C(=O)NC2CC2)c(O)n2ncc(/C=C/C(=O)N3CCC4(CCOCC4)C3)c12 [compound 559, (E)-N-Cyclopropyl-7-hydroxy-4-isobutyl-5-oxo-3-(3-oxo-3-(8-oxa-2-azaspiro[4.5]decan-2-yl)prop-1-en-1-yl)-4,5-dihydropyrazolo[1,5-a]pyrimidine-6-carboxamide]	1000 pM
CC[C@@H]1CCCN1C(=O)/C=C/c1cnn2c(O)c(C(=O)NC3CC3)c(=O)n(CC(C)C)c12 [compound 562, (R,E)-N-Cyclopropyl-3-(3-(2-ethylpyrrolidin-1-yl)-3-oxoprop-1-en-1-yl)-7-hydroxy-4-isobutyl-5-oxo-4,5-dihydropyrazolo[1,5-a]pyrimidine-6-carboxamide]	1310 pM
Cc1nn2c(O)c(C(=O)NC3CC3)c(=O)n(CC(C)C)c2c1/C=C/C(=O)N1CCOCC1 [compound 563, (E)-N-Cyclopropyl-7-hydroxy-4-isobutyl-2-methyl-3-(3-morpholino-3-oxoprop-1-en-1-yl)-5-oxo-4,5-dihydropyrazolo[1,5-a]pyrimidine-6-carboxamide]	700 pM
Cc1nn2c(O)c(C(=O)NC3CC3)c(=O)n(CC(C)C)c2c1/C=C/C(=O)N1CCCC1 [compound 564, (E)-N-Cyclopropyl-7-hydroxy-4-isobutyl-2-methyl-5-oxo-3-(3-oxo-3-(pyrrolidin-1-yl)prop-1-en-1-yl)-4,5-dihydropyrazolo[1,5-a]pyrimidine-6-carboxamide]	950 pM
Cc1nn2c(O)c(C(=O)NC3CC3)c(=O)n(CC(C)C)c2c1/C=C/C(=O)N1CCC(F)(F)C1 [compound 565, (E)-N-Cyclopropyl-3-(3-(3,3-difluoropyrrolidin-1-yl)-3-oxoprop-1-en-1-yl)-7-hydroxy-4-isobutyl-2-methyl-5-oxo-4,5-dihydropyrazolo[1,5-a]pyrimidine-6-carboxamide]	930 pM
Cc1nn2c(O)c(C(=O)NC3CC3)c(=O)n(CC(C)C)c2c1/C=C/C(=O)N1CC[C@H](F)C1 [compound 566, (S,E)-N-Cyclopropyl-3-(3-(3-fluoropyrrolidin-1-yl)-3-oxoprop-1-en-1-yl)-7-hydroxy-4-isobutyl-2-methyl-5-oxo-4,5-dihydropyrazolo[1,5-a]pyrimidine-6-carboxamide]	940 pM
Cc1nn2c(O)c(C(=O)NC3CC3)c(=O)n(CC(C)C)c2c1/C=C/C(=O)N1[C@@H](C)COC[C@@H]1C [compound 567, N-Cyclopropyl-3-((E)-3-((3S,5S)-3,5-dimethylmorpholino)-3-oxoprop-1-en-1-yl)-7-hydroxy-4-isobutyl-2-methyl-5-oxo-4,5-dihydropyrazolo[1,5-a]pyrimidine-6-carboxamide]	690 pM
Cc1nn2c(O)c(C(=O)NC3CC3)c(=O)n(CC(C)C)c2c1/C=C/C(=O)N1CCOC[C@@H]1C [compound 568, (S,E)-N-Cyclopropyl-7-hydroxy-4-isobutyl-2-methyl-3-(3-(3-methylmorpholino)-3-oxoprop-1-en-1-yl)-5-oxo-4,5-dihydropyrazolo[1,5-a]pyrimidine-6-carboxamide]	680 pM
Cc1nn2c(O)c(C(=O)NC3CC3)c(=O)n(CC(C)C)c2c1/C=C/C(=O)N1CC2CCC(C1)O2 [compound 569, (E)-3-(3-(8-Oxa-3-azabicyclo[3.2.1]octan-3-yl)-3-oxoprop-1-en-1-yl)-N-cyclopropyl-7-hydroxy-4-isobutyl-2-methyl-5-oxo-4,5-dihydropyrazolo[1,5-a]pyrimidine-6-carboxamide]	670 pM
Cc1nn2c(O)c(C(=O)NC3CC3)c(=O)n(CC(C)C)c2c1/C=C/C(=O)N1CCOC[C@H]1C [compound 570, (R,E)-N-Cyclopropyl-7-hydroxy-4-isobutyl-2-methyl-3-(3-(3-methylmorpholino)-3-oxoprop-1-en-1-yl)-5-oxo-4,5-dihydropyrazolo[1,5-a]pyrimidine-6-carboxamide]	750 pM
Cc1nn2c(O)c(C(=O)NC3CC3)c(=O)n(CC(C)C)c2c1/C=C/C(=O)N(C)C1CC1 [compound 572, (E)-N-Cyclopropyl-3-(3-(cyclopropyl(methyl)amino)-3-oxoprop-1-en-1-yl)-7-hydroxy-4-isobutyl-2-methyl-5-oxo-4,5-dihydropyrazolo[1,5-a]pyrimidine-6-carboxamide]	1100 pM
CC[C@@H]1COCCN1C(=O)/C=C/c1c(C)nn2c(O)c(C(=O)NC3CC3)c(=O)n(CC(C)C)c12 [compound 573, (R,E)-N-Cyclopropyl-3-(3-(3-ethylmorpholino)-3-oxoprop-1-en-1-yl)-7-hydroxy-4-isobutyl-2-methyl-5-oxo-4,5-dihydropyrazolo[1,5-a]pyrimidine-6-carboxamide]	880 pM
Cc1nn2c(O)c(C(=O)NC3CC3)c(=O)n(CC(C)C)c2c1/C=C/C(=O)N1CCN(C)CC1 [compound 574, (E)-N-Cyclopropyl-7-hydroxy-4-isobutyl-2-methyl-3-(3-(4-methylpiperazin-1-yl)-3-oxoprop-1-en-1-yl)-5-oxo-4,5-dihydropyrazolo[1,5-a]pyrimidine-6-carboxamide]	790 pM
Cc1nn2c(O)c(C(=O)NC3CC3)c(=O)n(CC3CCOCC3)c2c1/C=C/C(=O)N1CCOCC1 [compound 575, (E)-N-Cyclopropyl-7-hydroxy-2-methyl-3-(3-morpholino-3-oxoprop-1-en-1-yl)-5-oxo-4-((tetrahydro-2H-pyran-4-yl)methyl)-4,5-dihydropyrazolo[1,5-a]pyrimidine-6-carboxamide]	810 pM
Cc1nn2c(O)c(C(=O)NC3CC3)c(=O)n(CC(C)C)c2c1/C=C/C(=O)N1[C@H](C)COC[C@H]1C [compound 576, N-Cyclopropyl-3-((E)-3-((3R,5R)-3,5-dimethylmorpholino)-3-oxoprop-1-en-1-yl)-7-hydroxy-4-isobutyl-2-methyl-5-oxo-4,5-dihydropyrazolo[1,5-a]pyrimidine-6-carboxamide]	860 pM
